Source: the NIST ThermoML archive (doi:10.1021/je200721d)
± gives the expanded uncertainty stated by the source.

Test: xn = mol fraction of the nth substance listed
Settings: Liquid, Vibrating tube method

CCCCCCCC [octane] + CCCCCC
mass density (323.08 K, 13000 kPa, x2 = 0.1654): 685.79 ± 0.36 kg/m3 | mass density (323.08 K, 14000 kPa, x2 = 0.1654): 686.73 ± 0.36 kg/m3 | mass density (323.08 K, 15000 kPa, x2 = 0.1654): 687.65 ± 0.37 kg/m3 | mass density (323.08 K, 16000 kPa, x2 = 0.1654): 688.56 ± 0.38 kg/m3 | mass density (323.08 K, 17000 kPa, x2 = 0.1654): 689.44 ± 0.39 kg/m3 | mass density (323.08 K, 18000 kPa, x2 = 0.1654): 690.32 ± 0.4 kg/m3 | mass density (323.08 K, 19000 kPa, x2 = 0.1654): 691.15 ± 0.41 kg/m3 | mass density (323.08 K, 20000 kPa, x2 = 0.1654): 691.98 ± 0.42 kg/m3 | mass density (323.08 K, 21000 kPa, x2 = 0.1654): 692.79 ± 0.43 kg/m3 | mass density (323.08 K, 22000 kPa, x2 = 0.1654): 693.57 ± 0.43 kg/m3 | mass density (323.08 K, 23000 kPa, x2 = 0.1654): 694.36 ± 0.44 kg/m3 | mass density (323.08 K, 24000 kPa, x2 = 0.1654): 695.11 ± 0.45 kg/m3 | mass density (323.08 K, 25000 kPa, x2 = 0.1654): 695.85 ± 0.46 kg/m3 | mass density (323.09 K, 1000 kPa, x2 = 0.9308): 638.41 ± 0.28 kg/m3 | mass density (323.09 K, 2000 kPa, x2 = 0.9308): 639.57 ± 0.28 kg/m3 | mass density (323.09 K, 3000 kPa, x2 = 0.9308): 640.76 ± 0.29 kg/m3 | mass density (323.09 K, 4000 kPa, x2 = 0.9308): 641.92 ± 0.3 kg/m3 | mass density (323.09 K, 5000 kPa, x2 = 0.9308): 643.1 ± 0.31 kg/m3 | mass density (323.09 K, 6000 kPa, x2 = 0.9308): 644.29 ± 0.32 kg/m3 | mass density (323.09 K, 7000 kPa, x2 = 0.9308): 645.46 ± 0.33 kg/m3 | mass density (323.09 K, 8000 kPa, x2 = 0.9308): 646.63 ± 0.34 kg/m3 | mass density (323.09 K, 9000 kPa, x2 = 0.9308): 647.79 ± 0.35 kg/m3 | mass density (323.09 K, 10000 kPa, x2 = 0.9308): 648.93 ± 0.36 kg/m3 | mass density (323.09 K, 11000 kPa, x2 = 0.9308): 650.05 ± 0.37 kg/m3 | mass density (323.09 K, 12000 kPa, x2 = 0.9308): 651.17 ± 0.38 kg/m3 | mass density (323.09 K, 13000 kPa, x2 = 0.9308): 652.26 ± 0.39 kg/m3 | mass density (323.09 K, 14000 kPa, x2 = 0.9308): 653.35 ± 0.4 kg/m3 | mass density (323.09 K, 15000 kPa, x2 = 0.9308): 654.41 ± 0.41 kg/m3 | mass density (323.09 K, 16000 kPa, x2 = 0.9308): 655.45 ± 0.42 kg/m3 | mass density (323.09 K, 17000 kPa, x2 = 0.9308): 656.47 ± 0.43 kg/m3 | mass density (323.09 K, 18000 kPa, x2 = 0.9308): 657.47 ± 0.44 kg/m3 | mass density (323.09 K, 19000 kPa, x2 = 0.9308): 658.44 ± 0.45 kg/m3 | mass density (323.09 K, 20000 kPa, x2 = 0.9308): 659.39 ± 0.46 kg/m3 | mass density (323.09 K, 21000 kPa, x2 = 0.9308): 660.32 ± 0.47 kg/m3 | mass density (323.09 K, 22000 kPa, x2 = 0.9308): 661.2 ± 0.48 kg/m3 | mass density (323.09 K, 23000 kPa, x2 = 0.9308): 662.07 ± 0.49 kg/m3 | mass density (323.09 K, 24000 kPa, x2 = 0.9308): 662.91 ± 0.5 kg/m3 | mass density (323.09 K, 25000 kPa, x2 = 0.9308): 663.72 ± 0.51 kg/m3 | mass density (323.1 K, 1000 kPa, x2 = 0.7995): 646.3 ± 0.27 kg/m3 | mass density (323.1 K, 2000 kPa, x2 = 0.7995): 647.41 ± 0.28 kg/m3 | mass density (323.1 K, 3000 kPa, x2 = 0.7995): 648.55 ± 0.29 kg/m3 | mass density (323.1 K, 4000 kPa, x2 = 0.7995): 649.72 ± 0.3 kg/m3 | mass density (323.1 K, 5000 kPa, x2 = 0.7995): 650.83 ± 0.31 kg/m3 | mass density (323.1 K, 6000 kPa, x2 = 0.7995): 651.95 ± 0.32 kg/m3 | mass density (323.1 K, 7000 kPa, x2 = 0.7995): 653.08 ± 0.32 kg/m3 | mass density (323.1 K, 8000 kPa, x2 = 0.7995): 654.18 ± 0.33 kg/m3 | mass density (323.1 K, 9000 kPa, x2 = 0.7995): 655.3 ± 0.34 kg/m3 | mass density (323.1 K, 10000 kPa, x2 = 0.7995): 656.41 ± 0.35 kg/m3 | mass density (323.1 K, 11000 kPa, x2 = 0.7995): 657.51 ± 0.36 kg/m3 | mass density (323.1 K, 12000 kPa, x2 = 0.7995): 658.59 ± 0.37 kg/m3 | mass density (323.1 K, 13000 kPa, x2 = 0.7995): 659.66 ± 0.38 kg/m3 | mass density (323.1 K, 14000 kPa, x2 = 0.7995): 660.72 ± 0.39 kg/m3 | mass density (323.1 K, 15000 kPa, x2 = 0.7995): 661.75 ± 0.4 kg/m3 | mass density (323.1 K, 16000 kPa, x2 = 0.7995): 662.76 ± 0.41 kg/m3 | mass density (323.1 K, 17000 kPa, x2 = 0.7995): 663.74 ± 0.42 kg/m3 | mass density (323.1 K, 18000 kPa, x2 = 0.7995): 664.69 ± 0.43 kg/m3 | mass density (323.1 K, 19000 kPa, x2 = 0.7995): 665.64 ± 0.44 kg/m3 | mass density (323.1 K, 20000 kPa, x2 = 0.7995): 666.56 ± 0.45 kg/m3 | mass density (323.1 K, 21000 kPa, x2 = 0.7995): 667.44 ± 0.46 kg/m3 | mass density (323.1 K, 22000 kPa, x2 = 0.7995): 668.32 ± 0.47 kg/m3 | mass density (323.1 K, 23000 kPa, x2 = 0.7995): 669.16 ± 0.48 kg/m3 | mass density (323.1 K, 24000 kPa, x2 = 0.7995): 669.96 ± 0.49 kg/m3 | mass density (323.1 K, 25000 kPa, x2 = 0.7995): 670.76 ± 0.5 kg/m3 | mass density (332.95 K, 1000 kPa, x2 = 0.5749): 649.41 ± 0.27 kg/m3 | mass density (332.95 K, 2000 kPa, x2 = 0.5749): 650.55 ± 0.28 kg/m3 | mass density (332.95 K, 3000 kPa, x2 = 0.5749): 651.69 ± 0.29 kg/m3 | mass density (332.95 K, 4000 kPa, x2 = 0.5749): 652.87 ± 0.29 kg/m3 | mass density (332.95 K, 5000 kPa, x2 = 0.5749): 654.06 ± 0.3 kg/m3 | mass density (332.95 K, 6000 kPa, x2 = 0.5749): 655.21 ± 0.31 kg/m3 | mass density (332.95 K, 7000 kPa, x2 = 0.5749): 656.35 ± 0.32 kg/m3 | mass density (332.95 K, 8000 kPa, x2 = 0.5749): 657.49 ± 0.33 kg/m3 | mass density (332.95 K, 9000 kPa, x2 = 0.5749): 658.63 ± 0.34 kg/m3 | mass density (332.95 K, 10000 kPa, x2 = 0.5749): 659.75 ± 0.35 kg/m3 | mass density (332.95 K, 11000 kPa, x2 = 0.5749): 660.86 ± 0.36 kg/m3 | mass density (332.95 K, 12000 kPa, x2 = 0.5749): 661.96 ± 0.37 kg/m3 | mass density (332.95 K, 13000 kPa, x2 = 0.5749): 663.04 ± 0.38 kg/m3 | mass density (332.95 K, 14000 kPa, x2 = 0.5749): 664.1 ± 0.38 kg/m3 | mass density (332.95 K, 15000 kPa, x2 = 0.5749): 665.14 ± 0.39 kg/m3 | mass density (332.95 K, 16000 kPa, x2 = 0.5749): 666.16 ± 0.4 kg/m3 | mass density (332.95 K, 17000 kPa, x2 = 0.5749): 667.18 ± 0.41 kg/m3 | mass density (332.95 K, 18000 kPa, x2 = 0.5749): 668.14 ± 0.42 kg/m3 | mass density (332.95 K, 19000 kPa, x2 = 0.5749): 669.09 ± 0.43 kg/m3 | mass density (332.95 K, 20000 kPa, x2 = 0.5749): 670.02 ± 0.44 kg/m3 | mass density (332.95 K, 21000 kPa, x2 = 0.5749): 670.93 ± 0.45 kg/m3 | mass density (332.95 K, 22000 kPa, x2 = 0.5749): 671.82 ± 0.46 kg/m3 | mass density (332.95 K, 23000 kPa, x2 = 0.5749): 672.7 ± 0.47 kg/m3 | mass density (332.95 K, 24000 kPa, x2 = 0.5749): 673.55 ± 0.48 kg/m3 | mass density (332.95 K, 25000 kPa, x2 = 0.5749): 674.35 ± 0.49 kg/m3 | mass density (333.01 K, 1000 kPa, x2 = 0.9308): 629.03 ± 0.28 kg/m3 | mass density (333.01 K, 2000 kPa, x2 = 0.9308): 630.32 ± 0.29 kg/m3 | mass density (333.01 K, 3000 kPa, x2 = 0.9308): 631.62 ± 0.3 kg/m3 | mass density (333.01 K, 4000 kPa, x2 = 0.9308): 632.91 ± 0.31 kg/m3 | mass density (333.01 K, 5000 kPa, x2 = 0.9308): 634.2 ± 0.31 kg/m3 | mass density (333.01 K, 6000 kPa, x2 = 0.9308): 635.48 ± 0.32 kg/m3
